The values that follow come from patent publication US20110245171A1, “REHYDRATION COMPOSITIONS COMPRISING EPIDERMAL GROWTH FACTOR (EGF)” (priority 2004, published 2011).

Series [1] deals with jejunal tissue from rabbits infected with attaching-effacing E. coli (RDEC-1). Kind of series: Jejunal 3-O-methyl glucose transport in Ussing chambers. Set-up: species or system rabbit. The protocol:
Rabbits infected with attaching-effacing E. coli (RDEC-1) were used (20). Briefly, experimental rabbits (400-600 g) were orally inoculated with 5×10^7 live E. coli in 1 mL 10% sodium bicarbonate. Controls received sodium bicarbonate only. Animals were housed individually in a level B containment room, fed commercial feed and given water ad libitum. Ten days post-infection, all animals were killed with an intra-peritoneal overdose of sodium pentabarbitone following anesthesia with halothane. A 20-cm segment of jejunum beginning 5 cm distal to the ligament of Treitz was then removed and rinsed with ice-cold Kreb's buffer. Both longitudinal and circular muscle layers were stripped from the underlying mucosa and four adjacent pieces of jejunal tissue mounted under short-circuited conditions in Ussing chambers. Both mucosal and serosal surfaces were bathed in 10 ml of oxygenated Kreb's buffer with 10 mM glucose added to the serosal surface to provide metabolic energy to the tissue, 10 mM mannitol added to the mucosal surface to osmotically balance the glucose solution, and 20 mM 3-O-methyl glucose added to both surfaces. Immediately after mounting, 10 μCi 3-O-methyl[^3H]glucose was added to either the serosal or mucosal surface and allowed to equilibrate for 20 min. 3-O-methyl glucose is a non-metabolized glucose analog. Unidirectional mucosal to serosal (Jms) and serosal to mucosal (Jsm) fluxes were then determined by measuring 3 consecutive 5 min flux intervals and an overall 15 min flux interval before and after the addition of 100 ng/ml human recombinant epidermal growth factor (rhEGF) (Austral Biologicals, San Ramon, Calif.) or vehicle to the mucosal reservoir. Net flux (Jnet) was calculated by subtracting the serosal to mucosal flux, Jsm, from the mucosal to serosal flux, Jms. Clinical symptoms were monitored including fecal shedding of the bacterium.

The next series deals with K88 positive E. coli. Kind of series: Enteropathogenic E. coli infection in piglets, oral EGF. In kind it is in vivo. The method, then: An enteropathogenic Escherichia coli isolate obtained from Veterinary Pathology Laboratories (VPL), Edmonton, Alberta was utilized in these experiments. This strain was originally isolated from a piglet with diarrhea and is positive for Stb, Lt, and K88 (F4). This strain is referred to as K88 positive E. coli. Enteropathogenic E. coli infections produce primarily a malabsorptive diarrhea, although there is a smaller secretory component.
Bacteria were grown in LB™ broth (Difco Laboratories, Detroit, Mich.) and frozen on Microbank™ porous beads (Pro-Labs Diagnostics, Richmond Hill, ON) at −70° C. For each inoculum preparation, one bead was thawed and incubated in 20 ml sterile LB™ broth for 5 h at 37° C., 200 rpm. Then, the 20 ml starter culture was placed in 980 ml LB™ broth and incubated at 37° C. for 15 hours, 200 rpm. LB™ broth was aliquoted in 18 sterile polystyrene 50 ml tubes (Falcon), centrifuged at 3000 rpm (floor Sorval) for 10 minutes, and all pellets pooled and resuspended in 50 ml 10% […]-sterile PBS.
Inoculum: Piglets received late log phase 1×10^10 (counted by spectrophotometry, 600 nm, A=1.9) live K88 positive E. coli. Bacterial inoculum was delivered in 10% NaHCO3/sterile PBS (5 ml), followed by lactate Ringer's solution (5 ml). The inoculum (10 ml) was delivered via a 40 cm orogastric intubation tube connected to a 20 cc syringe. Total bacterial counts in inoculum were calculated via serial dilutions plated onto LB™ agar and incubated overnight at 37° C., 5% CO2.
A pregnant sow was purchased from a local commercial supplier (Doug Hall, Airdrie, AB) approximately one week prior to due-date. The sow was housed at the University of Calgary farm in a farrowing pen. The sow was given free access to water and pig feed (Doug Hall, Airdrie, AB). Two-day old piglets were weight ranked and randomly assigned to each experimental group (see below), and treatment was initiated that day (Day-1). Inoculation with live K88 positive E. coli was carried out the following day (Day 0). […]

The subject of series [2] is piglets with spontaneous neonatal diarrhea. Kind of series: Spontaneous neonatal diarrhea in piglets, oral EGF. The class given is in vivo. An excerpt:
A pregnant sow was purchased from a local commercial supplier (Doug Hall, Airdrie, AB) approximately one week prior to due-date. The sow was housed at the University of Calgary farm in a farrowing pen. The sow was given free access to water and pig feed (Doug Hall, Airdrie, AB). Two-day old piglets were weight ranked and randomly assigned to each experimental group (see below), and treatment was initiated that day (Day 0) and animals assessed 24 hr later. […] Piglets with their sow were housed separately in contained animal facilities for the duration of the experiment at the University of Calgary farm. Housing was at 20° C., with approximate 8:16 h photoperiods.
Piglets were assigned to one of the following experimental groups: 1) untreated animals gavaged orally with 5 mL sterile PBS daily starting on Day 0, and 2) EGF-treated, gavaged orally with rhEGF in 5 mL sterile PBS at a concentration of 100 μg/kg body weight daily starting on Day 0.
The study was terminated on Day 1. A total of 10 piglets were studied, 5 were given EGF, and 5 received vehicle (untreated).
Piglets were checked daily for weight gain, production of diarrhea, and overall clinical condition (alertness, body posture, condition). In addition, daily fecal scoring was carried out twice daily (9:00 am, and 3:00 pm) as follows: 0=solid, formed stools, 1=soft stools with no perineal soiling, 2=non-bloody diarrhea with perineal soiling, 3=bloody diarrhea with perineal soiling.
All morning observations were performed between 7:00 am and 12:00 pm to avoid diurnal variations. One additional fecal scoring was carried out at 3:00 pm.

Series [3] relates to pathogenic strains of Escherichia coli. The following applies: in vitro, literature; cited from earlier work.
The test system of a further series is Salmonella typhimurium. The following applies: in vitro, literature; cited from earlier work.
A further series concerns Cryptosporidium parvum. The following applies: in vitro, literature; cited from earlier work.
The subject of a further series is enteropathogenic E. coli. The following applies: literature; cited from earlier work.
In another series the test system is C. parvum. The following applies: literature; cited from earlier work.
A further series relates to giardiasis. The following applies: compared to untreated animals, literature; cited from earlier work.
For another series, the system named is bacteria and protozoa. The following applies: literature; cited from earlier work.
Series [4] deals with jejunal nutrient transport. The following applies: cited from earlier work.
[5] abbreviates: infected tissue treated with EGF compared to controls.
[6] abbreviates: infected tissue, 10 days post-infection, 100 ng/ml rhEGF on mucosal surface.

“EGF: 53-amino acid human epidermal growth factor of SEQ ID NO: 1; recombinant human EGF used in the experiments”: in [1] (setting [5]), the “mucosal to serosal 3-O-methyl glucose transport” value was “did not differ” and the “net 3-O-methyl glucose transport” value is on record as “did not differ”. In series [1] (setting [6]), the “mucosal to serosal flux of 3-O-methyl glucose” value is listed as “significantly increased” and the “net flux of 3-O-methyl glucose” value is “significantly increased”. For the same substance, the weight gain result with K88 positive E. coli (EGF-treated compared to untreated, over the course of the study) was “did not differ”. Further, the “acceleration of return to normal fecal consistency” value with K88 positive E. coli (compared to untreated animals (day 3 instead of day 4)) is on record as “one day”. Moreover, the “day by which fecal scores returned to normal (fecal score of 0 in all animals)” value in the series on K88 positive E. coli (rhEGF 100 μg/kg oral gavage daily from Day -1, infected Day 0, untreated: Day 4) is ≤ 3 days. For the same substance, in [2] (Day 1, one day after initiation of treatment, rhEGF 100 μg/kg oral, compared with vehicle), the fecal scores entry is recorded as “significantly (P<0.05) reduced”. Further, the “animals that had died” value in [2] (Day 1, 5 piglets given EGF, 2 untreated died) is reported as 1. For the same substance, the weight gain entry in series [2] (EGF compared to untreated) is “did not differ”. Besides, the “epithelial bacterial translocation and invasion” value in series [3] is on record as “inhibit”. Also, the “epithelial bacterial translocation and invasion” value with Salmonella typhimurium is given as “inhibit”. In addition, the epithelial colonization result in the series with Cryptosporidium parvum is “reduce”. Besides, in the series on enteropathogenic E. coli, the bacterial colonization result was “significantly inhibited”; the “diarrhea and reduced weight gain associated with the disease” value is on record as “prevented”; the epithelial damage result was “reduced”. Further, in the series with C. parvum, the fecal oocyte passage entry is “decreased”. Also, in the series on giardiasis, the intestinal function result is “enhanced” and the trophozoite colonization entry is “inhibited”. Also, in the series with bacteria and protozoa, the anti-protozoal effect entry is given as “no direct” and the bactericidal effect entry was “no direct”. Also, in [4], the “SGLT1 content in the microsomal fraction” value was “decrease” and the enterocyte glucose transport entry is on record as “increase”. Besides, the “defect in glucose transport” value in series [4] (following administration of octreotide, literature) was “reverse”. Further, in series [4] (literature), the “BBMV SGLT1 content” value was “significant increase”, the amino acid transport result is “rapidly increases”, the “brush border (apical) surface area” value is “increase” and the glucose transport entry is recorded as “rapidly increases”. In series [4] (literature), the “ileal electroneutral NaCl absorption and brush-border Na+/H+ exchange” value is listed as “increase”; the “jejunal glutamine, alanine galactose and glycine transport” value is listed as “increase”. Moreover, in series [4] (mucosal EGF, literature), the “Vmax for glucose uptake into brush border membrane vesicles (BBMV)” value is “increased” and the “Vmax for proline uptake into brush border membrane vesicles (BBMV)” value is “increased”.

As for “TGFα: related peptide that binds to the EGF receptor [reference compound]”, in series [4] (literature), the “brush border (apical) surface area” value is given as “had no effect” and the glucose transport result is reported as “had no effect”. Besides, the small intestinal absorption result in series [4] (some studies, literature) is “increase”.
